Experimental data published in patent US11274111B2, “Arginase inhibitors and methods of use” (Merck Sharp & Dohme Corp., priority 2018, dated 2022).
Counter-ions that a name gives are not always drawn.

Each molecule was assayed against T1, Arginase (Homo sapiens, UniProt P05089) (assay: Arginase Thioornithine Generating Assay (TOGA)). Conditions: Top Dose 10000 nM; read-out: Percent Inhibition at Top Dose.
T1 construct: Arginase protein was recombinantly expressed in Escherichia coli
T1 sequence (P05089 1-322): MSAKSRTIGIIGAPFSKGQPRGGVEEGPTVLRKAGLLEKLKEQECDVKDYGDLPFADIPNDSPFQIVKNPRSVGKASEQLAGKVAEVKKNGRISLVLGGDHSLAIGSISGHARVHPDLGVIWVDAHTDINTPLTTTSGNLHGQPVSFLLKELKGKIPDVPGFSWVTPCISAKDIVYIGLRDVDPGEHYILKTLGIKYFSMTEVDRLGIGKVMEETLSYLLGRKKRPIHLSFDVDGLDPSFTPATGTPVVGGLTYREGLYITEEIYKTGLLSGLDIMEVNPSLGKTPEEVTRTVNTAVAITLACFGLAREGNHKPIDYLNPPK
Type: biochemical
Protocol: Arginase Thioornithine Generating Assay (TOGA)
Compounds were serially diluted in ten 3-fold steps in DMSO starting from 10 mM DMSO stocks. Compound dilutions or DMSO alone were then dispensed from the dilution plate into a Greiner black 384-well assay plate (catalog #781086) using an Echo 555 acoustic liquid handler (Labcyte).
Arginase protein was recombinantly expressed in Escherichia coli. Purified protein was then diluted in assay buffer (50 mM Tris pH 7.5, 50 mM NaCl, 1 mM manganese chloride, 0.05% bovine serum albumin to obtain a final Arginase concentration of 1.88 nM. Arginase solution (20 μL) or buffer alone (20 μL) were dispensed to wells of the assay plate using a BioRAPTR liquid dispenser (Beckman Coulter). Assay plates containing compound and arginase enzyme were incubated at room temperature for 30 minutes. Afterwards, 5 μL of 2.5 mM thioarginine (Cayman Chemicals) in assay buffer were added to each well of the assay plate using a BioRAPTR liquid dispenser. Plates were incubated at room temperature for 60 minutes and reactions were quenched by addition of 15 μL of 200 uM 7-Diethylamine-3-(4-maleimidophenyl)-4-methylcoumarin (Sigma Chemical) in 70% ethanol. Plates were briefly shaken to mix and the fluorescence was measured in an Spectramax plate reader (Molecular Devices) with a 410 nm excitation wavelength and an 490 nm emission wavelength.
Potencies were calculated by […] to the four parameter logistic IC50 equation.
Work on `CC(=O)N1C[C@@H]2CC(N)(C(=O)O)C(CCCB(O)O)[C@@H]2C1` (mixture of isomers) [Example 13a, rac-(3aR,6aR)-2-acetyl-5-amino-4-(3-boronopropyl)octahydrocyclopenta[c]pyrrole-5-carboxylic acid] yielded an inhibition at 10 µM of 99%.
In the case of `NC1(C(=O)O)C(CCCB(O)O)C[C@H]2CNC[C@H]21` (mixture of isomers) [Example 28, rac-(3aS,6aR)-4-amino-5-(3-boronopropyl)octahydrocyclopenta[c]pyrrole-4-carboxylic acid], the inhibition at 10 µM is reported as 90.4%.
With `CN1CC[C@@H]2[C@H]1C[C@@H](CCCB(O)O)C2(N)C(=O)O` (relative stereo) [Example 32, rel-(3aR,5R,6aR)-4-amino-5-(3-boronopropyl)-1-methyloctahydrocyclopenta[b]pyrrole-4-carboxylic acid] the inhibition at 10 µM was 97.2%.
Molecule `NC1(C(=O)O)C(CCCB(O)O)C[C@H]2C[C@H]21` (relative stereo) [Example 36a, rel-(1R,5R)-2-amino-3-(3-boronopropyl)bicyclo[3.1.0]hexane-2-carboxylic acid] has an inhibition at 10 µM of 93%.
With `N=C(N)N1C[C@@H]2C[C@@](N)(C(=O)O)[C@@H](CCCB(O)O)[C@@H]2C1` (single isomer, unassigned) [Example 11a] the inhibition at 10 µM was 67.2%.
`NC(=O)N1CC2CC(N)(C(=O)O)C(CCCB(O)O)C2C1` (single isomer, unassigned) [Example 17a, 5-amino-4-(3-boronopropyl)-2-carbamoyloctahydrocyclopenta[c]pyrrole-5-carboxylic acid] showed an inhibition at 10 µM of 90.6%.
Molecule `NC1(C(=O)O)CC2CN(S(N)(=O)=O)CC2C1CCCB(O)O` (single isomer, unassigned) [Example 18a, 5-amino-4-(3-boronopropyl)-2-sulfamoyloctahydrocyclopenta[c]pyrrole-5-carboxylic acid] has an inhibition at 10 µM of 100%.
Molecule `N[C@@]1(C(=O)O)C[C@H]2C(=O)NC[C@H]2[C@@H]1CCCB(O)O` (single isomer, unassigned) [Example 23a] has an inhibition at 10 µM of 86.5%.
In the case of `N[C@@]1(C(=O)O)C[C@H]2CNC(=O)[C@H]2[C@@H]1CCCB(O)O` (single isomer, unassigned) [Example 23b], the inhibition at 10 µM is reported as 38.8%.
`NC1(C(=O)O)CC2(CNC2)CC1CCCB(O)O` (single isomer, unassigned) [Example 35c, 6-amino-7-(3-boronopropyl)-2-azaspiro[3.4]octane-6-carboxylic acid] was tested, and the inhibition at 10 µM was 82.3%.
In the case of `NCC(=O)N1C[C@@H]2CC(N)(C(=O)O)C(CCCB(O)O)[C@@H]2C1` (stereo in doubt) [Example 16, 5-amino-2-(2-aminoacetyl)-4-(3-boronopropyl)octahydrocyclopenta[c]pyrrole-5-carboxylic acid], the inhibition at 10 µM is reported as 97.9%.
`N[C@@]1(C(=O)O)C[C@H]2CNC[C@H]2[C@@H]1CCCB(O)O` [Example 1e, (3aR,4S,5S,6aR)-5-amino-4-(3-boronopropyl)octahydrocyclopenta[c]pyrrole-5-carboxylic acid] showed an inhibition at 10 µM of 98.9%.
Molecule `N[C@@]1(C(=O)O)C[C@H]2CN(Cc3ccc(F)cc3)C[C@H]2[C@@H]1CCCB(O)O` [Example 3, (3aR,4S,5S,6aR)-5-amino-4-(3-boronopropyl)-2-(4-fluorobenzyl)octahydrocyclopenta[c]pyrrole-5-carboxylic acid] has an inhibition at 10 µM of 99.8%.
Work on `C[C@H](N)C(=O)N1C[C@@H]2C[C@@](N)(C(=O)O)[C@@H](CCCB(O)O)[C@@H]2C1` [Example 4, (3aR,4S,5S,6aR)-2-(L-alanyl)-5-amino-4-(3-boronopropyl)octahydrocyclopenta[c]pyrrole-5-carboxylic acid] yielded an inhibition at 10 µM of 97.4%.
`NCC(=O)N1C[C@@H]2C[C@@](N)(C(=O)O)[C@@H](CCCB(O)O)[C@@H]2C1` [Example 5, (3aR,4S,5S,6aR)-5-amino-4-(3-boronopropyl)-2-glycyloctahydrocyclopenta[c]pyrrole-5-carboxylic acid] gave an inhibition at 10 µM of 95.1%.
For `N[C@@H](CO)C(=O)N1C[C@@H]2C[C@@](N)(C(=O)O)[C@@H](CCCB(O)O)[C@@H]2C1` [Example 6, (3aR,4S,5S,6aR)-2-(L-seryl)-5-amino-4-(3-boronopropyl)octahydrocyclopenta[c]pyrrole-5-carboxylic acid], the inhibition at 10 µM was 94.2%.
Molecule `CC(=O)N1C[C@@H]2C[C@@](N)(C(=O)O)[C@@H](CCCB(O)O)[C@@H]2C1` [Example 7, (3aR,4S,5S,6aR)-2-acetyl-5-amino-4-(3-boronopropyl)octahydrocyclopenta[c]pyrrole-5-carboxylic acid] has an inhibition at 10 µM of 72.8%.
Molecule `CC(C)N1C[C@@H]2C[C@@](N)(C(=O)O)[C@@H](CCCB(O)O)[C@@H]2C1` [Example 8, (3aR,4S,5S,6aR)-5-amino-4-(3-boronopropyl)-2-isopropyloctahydrocyclopenta[c]pyrrole-5-carboxylic acid] has an inhibition at 10 µM of 74.8%.
`NCCN1C[C@@H]2C[C@@](N)(C(=O)O)[C@@H](CCCB(O)O)[C@@H]2C1` [Example 9, (3aR,4S,5S,6aR)-5-amino-2-(2-aminoethyl)-4-(3-boronopropyl)octahydrocyclopenta[c]pyrrole-5-carboxylic acid] was tested, and the inhibition at 10 µM was 98%.
For `N[C@@]1(C(=O)O)C[C@H]2CN(CC(F)(F)F)C[C@H]2[C@@H]1CCCB(O)O` [Example 10, (3aR,4S,5S,6aR)-5-amino-4-(3-boronopropyl)-2-(2,2,2-trifluoroethyl)octahydrocyclopenta[c]pyrrole-5-carboxylic acid], the inhibition at 10 µM was 55.9%.
For `CCN1C[C@@H]2C[C@@](N)(C(=O)O)[C@@H](CCCB(O)O)[C@@H]2C1` [Example 12, (3aR,4S,5S,6aR)-5-amino-4-(3-boronopropyl)-2-ethyloctahydrocyclopenta[c]pyrrole-5-carboxylic acid], the inhibition at 10 µM was 85.3%.
With `NC(=O)CN1CC2CC(N)(C(=O)O)C(CCCB(O)O)C2C1` (stereo not shown) [Example 15, 5-amino-2-(2-amino-2-oxoethyl)-4-(3-boronopropyl)octahydrocyclopenta[c]pyrrole-5-carboxylic acid] the inhibition at 10 µM was 88.6%.
In the case of `CN[C@@]1(C(=O)O)C[C@H]2CNC[C@H]2[C@@H]1CCCB(O)O` [Example 22, (3aR,4S,5S,6aR)-4-(3-boronopropyl)-5-(methylamino)octahydrocyclopenta[c]pyrrole-5-carboxylic acid], the inhibition at 10 µM is reported as 93.9%.

Same assay, conditions: Top Dose 16000 nM; read-out: Percent Inhibition at Top Dose
Work on `CN(C)CC(=O)N1C[C@@H]2CC(N)(C(=O)O)C(CCCB(O)O)[C@@H]2C1` (stereo in doubt) [Example 19, 5-amino-4-(3-boronopropyl)-2-(2-(dimethylamino)acetyl)octahydrocyclopenta[c]pyrrole-5-carboxylic acid] yielded an inhibition at 16 µM of 82.7%.
`N[C@@]1(C(=O)O)C[C@H]2CNC[C@H]2[C@@H]1CCCB(O)O` [Example 1f, (3aR,4S,5S,6aR)-5-amino-4-(3-boronopropyl)octahydrocyclopenta[c]pyrrole-5-carboxylic acid] showed an inhibition at 16 µM of 87.8%.
Molecule `CN1C[C@@H]2C[C@@](N)(C(=O)O)[C@@H](CCCB(O)O)[C@@H]2C1` [Example 2, (3aR,4S,5S,6aR)-5-amino-4-(3-boronopropyl)-2-methyloctahydrocyclopenta[c]pyrrole-5-carboxylic acid] has an inhibition at 16 µM of 82.6%.

Same assay, conditions: Top Dose 100000 nM; read-out: Percent Inhibition at Top Dose
With `NC1(C(=O)O)C[C@H]2CNC[C@H]2C1CCCB(O)O` (relative stereo) [Example 1, (3aR,6aR-rel-)-5-amino-4-(3-boronopropyl)octahydrocyclopenta[c]pyrrole-5-carboxylic acid] the inhibition at 100 µM was 99.4%.
`N[C@@]1(C(=O)O)C[C@H]2CNC[C@H]2[C@@H]1CCCB(O)O` [Example 1a] showed an inhibition at 100 µM of 104%.
Molecule `NC1(C(=O)O)C2CNC(C2)C1CCCB(O)O` (stereo not shown) [Example 24, 5-amino-6-(3-boronopropyl)-2-azabicyclo[2.2.1]heptane-5-carboxylic acid] has an inhibition at 100 µM of 95.9%.

Same assay, conditions: read-out: Percent Inhibition at Top Dose, Top Dose 10000 nM
`NC1(C(=O)O)C(CCCB(O)O)C[C@H]2NCC[C@H]21` (mixture of isomers) [Example 20f, (3aR,6aR)-4-amino-5-(3-boronopropyl)octahydrocyclopenta[b]pyrrole-4-carboxylic acid] was tested, and the inhibition at 10 µM was 99.2%.
`N[C@]1(C(=O)O)[C@H](CCCB(O)O)C[C@H]2NCC[C@H]21` [Example 20b, (3aR,4R,5R,6aR)-4-amino-5-(3-boronopropyl)octahydrocyclopenta[b]pyrrole-4-carboxylic acid] gave an inhibition at 10 µM of 101%.
With `C[C@H](N)C(=O)N1CCCC12CCC(N)(C(=O)O)C(CCCB(O)O)C2` (stereo partly drawn) [Example 26, 8-amino-1-((S)-2-aminopropanoyl)-7-(3-boronopropyl)-1-azaspiro[4.5]decane-8-carboxylic acid hydrochloride] the inhibition at 10 µM was 45.2%.

Same assay, conditions: recombinant arginase 1.88 nM, thioarginine substrate
For `CN1C[C@@H]2C[C@@](N)(C(=O)O)[C@@H](CCCB(O)O)[C@@H]2C1` [Example 2, (3aR,4S,5S,6aR)-5-amino-4-(3-boronopropyl)-2-methyloctahydrocyclopenta[c]pyrrole-5-carboxylic acid], the IC50 was 82.7 nM.
`C[C@H](N)C(=O)N1C[C@@H]2C[C@@](N)(C(=O)O)[C@@H](CCCB(O)O)[C@@H]2C1` [Example 4, (3aR,4S,5S,6aR)-2-(L-alanyl)-5-amino-4-(3-boronopropyl)octahydrocyclopenta[c]pyrrole-5-carboxylic acid] showed an IC50 of 108 nM.
With `NCC(=O)N1C[C@@H]2C[C@@](N)(C(=O)O)[C@@H](CCCB(O)O)[C@@H]2C1` [Example 5, (3aR,4S,5S,6aR)-5-amino-4-(3-boronopropyl)-2-glycyloctahydrocyclopenta[c]pyrrole-5-carboxylic acid] the IC50 was 160 nM.
With `N[C@@H](CO)C(=O)N1C[C@@H]2C[C@@](N)(C(=O)O)[C@@H](CCCB(O)O)[C@@H]2C1` [Example 6, (3aR,4S,5S,6aR)-2-(L-seryl)-5-amino-4-(3-boronopropyl)octahydrocyclopenta[c]pyrrole-5-carboxylic acid] the IC50 was 179 nM.
In the case of `N[C@@]1(C(=O)O)C[C@H]2CN(CC(F)(F)F)C[C@H]2[C@@H]1CCCB(O)O` [Example 10, (3aR,4S,5S,6aR)-5-amino-4-(3-boronopropyl)-2-(2,2,2-trifluoroethyl)octahydrocyclopenta[c]pyrrole-5-carboxylic acid], the IC50 is reported as 5270 nM.
